Laboratory results published in ChEMBL document CHEMBL1157539, “Thousands of chemical starting points for antimalarial lead identification” (Nature, 2010).
Counter-ions that a name gives are not always drawn.

Test system: Plasmodium falciparum
Experiment: GSK_TCMDC: Inhibition of Plasmodium falciparum 3D7 in whole erythrocytes, using parasite LDH activity as an index of growth.
Type: functional, organism-based

SMILES	XC50 (Plasmodium falciparum, 3D7) [nM]	XC50 [nM]
O=C(Nc1ccc(F)c(F)c1)c1ccc(CN2CCCN(Cc3cccc(F)c3)CC2)cc1	1120	–
CN(C)CCOc1cc(NC(=O)c2ccc(-c3ccc(Cl)cc3Cl)cc2)ccc1-c1ccccc1	906	–
Oc1cc(Nc2ccnc3cc(-c4cccc(CN5CCOCC5)c4)ccc23)c(F)cc1Cl	207	–
COc1ccc2nccc([C@@H](O)CN3CCC(NCc4cc5c(Cl)cccc5[nH]4)CC3)c2c1	155	–
COc1ccc(Cl)cc1N1CCN(CCCNC(=O)c2ccc(-c3nc4cc(Cl)c(C)cc4[nH]3)s2)CC1	776	–
Cc1cc(=NN=Cc2cccc(F)c2)c2cccc(C)c2[nH]1	770	–
CC[C@H]1CN2CC[C@@H]1C[C@H]2[C@H](O)c1cc(N2CCOCC2)nc2ccc(OC)cc12	118	–
CNCCNc1nccc(N2CCc3ncnc(Nc4ccc(OCc5cccc(F)c5)c(Cl)c4)c3C2)n1	197	–
O=C(OCc1ccccn1)c1nc2ccccc2[nH]1	793	–
CC(C)N1CCN(c2ccc(OCCCCN3CCN(c4cccc(Cl)c4Cl)CC3)c(C(F)(F)F)c2)CC1	815	–
COc1ccc(NC(=O)/C=C/c2ccccc2Cl)cc1OCCN1CCC(Cc2cc3ccccc3[nH]2)CC1	903	–
Nc1oc2c(CN3CCCCCC3)c(O)ccc2c(=O)c1-c1nc2ccccc2s1	516	–
CC(C)C(=O)NC(c1ccc(N(C)C)cc1)c1cc(Cl)c2cccnc2c1O (configuration not stated)	859	–
O=C(N[C@@H](Cc1ccccc1)[C@H](O)CNC1CCc2ccccc2C1)c1cc(C2CCCC2)cc(N2CCCC2=O)c1 (some centres not stated)	161	–
Nc1ccc2nc(C=Cc3ccc(Cl)cc3)[nH]c2c1	941	–
Brc1ccsc1-c1nc(NCCC(c2ccccc2)c2ccccc2)no1	1080	–
Oc1ccc(CCNc2nc(NCc3ccccc3Oc3ccc(C(F)(F)F)cc3)nc(N3CCNCC3)n2)cc1	1160	–
c1cc(CNCC2CCCO2)cc(-c2csc(-c3nc4ccccc4[nH]3)c2)c1 (configuration not stated)	1040	–
O=C(Nc1ccc(Oc2ccccc2)cc1)N1CCC(CCN2CCC(c3c[nH]c4ccccc34)CC2)CC1	795	–
CN1CCN(c2ccc(-c3cccc(NC(=O)c4cccc(Cl)c4)c3)nn2)CC1	579	–
Cc1nnsc1C(=O)Nc1cccc(-c2ccc(-c3nc4cc(F)ccc4[nH]3)cc2)c1	96.2	–
CCOC(=O)c1nc(-c2cccc(F)c2)[nH]c1N	748	–

SMILES	XC50 (Plasmodium falciparum, 3D7) [nM]	XC50 [nM]
COCn1ncc2cc(-c3cccc(NC(=O)c4csc(NC(C)=O)n4)c3)ccc21	987	–
O=C(CN1CCN(S(=O)(=O)C=Cc2ccccc2)CC1)Nc1cc(C(F)(F)F)ccc1Cl	776	–
COc1cccc2cc(C(=O)N[C@@H](CC(C)C)C(=O)N[C@H](/C=N/N(C)C(=O)OC(C)(C)C)CC(=O)OC(C)(C)C)oc12	654	–
N#Cc1ccc2c(c1)CCN(CCC1CCC(NC(=O)Nc3cnc4ccccc4c3)CC1)C2 (configuration not stated)	768	–
COc1ccc2ccccc2c1CCCCN1CCN(CC(c2ccc(F)cc2)N2CCN(C(C)C)CC2)CC1 (configuration not stated)	809	–
CCN(CC)CCNc1ccnc2[nH]c3ccc(C)cc3c12	669	–
CCN(CC)CCCN(CCCN(CC)CC)c1cc(C)nc(Nc2ccc3cc(Br)ccc3c2)n1	567	–
Cc1[nH]c(C)c(-c2ccc(Br)cc2)c(=O)c1Cl	844	–
CNc1ccc(CNCc2ccc(-c3ccc(-c4nc5cccc(C)c5[nH]4)cc3)cc2)cc1	319	–
COc1cc(F)c2nccc([C@@H](O)CN3CCC(NCc4nc5cccc(F)c5[nH]4)CC3)c2c1	847	–
COc1cc(C=CC(=O)N2CCC3(CC2)CC(=O)c2ccccc2O3)cc(OC)c1OC	761	–
Cc1ccc(CN2CCCN(Cc3cccc(C(=O)Nc4ccc(C(C)(C)C)cc4)c3)CC2)s1	1130	–
O=C(Nc1ccc(Cl)cc1)c1cccc2nc(C(F)(F)F)[nH]c12	764	–
Cc1cc(=NN=Cc2ccccc2Cl)c2ccc(F)cc2[nH]1	257	–
Cc1cc(Cl)ccc1OC(C)C(=O)N1CCc2ccccc21 (configuration not stated)	668	–
CCC[C@@H](C(=O)NCCc1cccc(OC)c1)N1C(=O)c2c(ccc(OC)c2OC)C1C(=O)Nc1c(C)cccc1C (some centres not stated)	808	–
Fc1ccc2[nH]cc(CCNCc3ccc(-c4cccc(-c5nc6ccccc6[nH]5)c4)cc3)c2c1	174	–
CC(C)[C@H]1CC[C@H](C)C[C@@H]1OC(=O)N[C@@H](Cc1ccc(O)cc1)C(=O)NC1CCN(Cc2ccc(OCCCN(C)C)cc2)C1 (some centres not stated)	764	–
CC(C)COc1ccc(Cl)cc1Cc1ccc(-c2nc3cc(CCN(C)C)ccc3[nH]2)o1	982	–
COc1ccc2nccc([C@@H](O)CN3CCC(NCc4cc5ccccc5[nH]4)CC3)c2c1	1100	–
N#Cc1cc(C(=O)c2cc(Br)ccc2O)cn(C2CCCCC2)c1=O	910	–
CCOCc1cnc(C)nc1CNC(=O)c1c(C)[nH]c2ccc(C)cc12	1010	–

SMILES	XC50 (Plasmodium falciparum, 3D7) [nM]	XC50 [nM]
COc1cc2nc(NCC3CCCO3)n3nc(-c4ccccc4)nc3c2cc1OC (configuration not stated)	211	–
C=C[C@H]1CN2CC[C@H]1C[C@H]2[C@H](O)c1ccnc2ccc(OC)cc12 [QUININE HYDROCHLORIDE]	145	95.2
Cc1cc(Cl)ccc1N(Cc1ccccc1)c1ccnc(Cl)n1	859	–
CC(=O)c1ccc(NC(=O)Nc2ccc(N(C)c3ccnc(Nc4cccc(CS(C)(=O)=O)c4)n3)cc2)cc1	122	–
CCOC(=O)c1nc2ccc(SC3CCCCC3)cn2c1Br	1060	–
COc1c(CN2CCOCC2)cccc1-c1cc2c(-c3ccc(C(=O)O)c(C(C)C)c3)ccnc2[nH]1	742	–
CCOC(=O)CC[C@H](NC(=O)c1ccc(NS(=O)(=O)c2ccc(-c3cnc(N)[nH]c3=O)cc2)cc1)C(=O)OCC	174	–
Cc1ccc(CN2CCN(Cc3cccc(NC(=O)c4ccc5ccccc5c4)c3)CC2)cc1C	1220	–
CCOc1cc(C)ccc1NC1CCN(CCCCNC(=O)c2ccc(NC(=O)c3ccc(Cl)cc3)cc2)CC1	714	–
Cc1cc(-c2cnc(N)c(-c3ccc(N4CCN(C)CC4)cc3)c2)cc(C)c1O	1170	–
Cc1ccc2nc(C)cc(NC(=O)Nc3ccc(N(C)C)cc3)c2c1	541	–
O=[N+]([O-])c1cccc(-c2ccc(C=NNc3cc(N4CCCC4)nc(N4CCCC4)n3)o2)c1	713	–
COc1ccc(NC(=O)NC2CCN(CCCOc3ccnc4cc(Cl)ccc34)C2)cc1OC (configuration not stated)	792	–
OC(c1nnc(S)n1-c1ccccc1)C(O)c1nnc(S)n1-c1ccccc1 (configuration not stated)	741	–
CCN(CC)CCn1c(=N)n(CC(=O)c2ccc(-c3ccccc3)cc2)c2ccccc21	1140	–
CCOCn1c(-c2ccccc2)cc2c3c(N)nc(N)nc3ccc21	186	–
Brc1ccc(Nc2nc(NCc3ccccc3)c3ccccc3n2)cc1	337	–
COc1ccc(CN(C)CCOc2ccc(NC(=O)c3cccc4c(=O)c5cc(SC)ccc5[nH]c34)cc2)cc1OC	877	–
Cc1ccc(C)c(NC(=O)Nc2ccc(Nc3nc(C)cc(N4CCOCC4)n3)cc2)c1	978	–
CCOc1cc(C(=O)NCCN(CC)c2cccc(C)c2)ccc1-c1nc2cc(Cl)ccc2[nH]1	809	–
O=C(Nc1ccc2c(c1)CCNCC2)Nc1ccc2ccccc2c1	622	–
COc1ccc(CC(C)NCC(O)c2cccc(Br)c2)cc1 (configuration not stated)	961	–

SMILES	XC50 (Plasmodium falciparum, 3D7) [nM]	XC50 [nM]
Cc1cc(N[C@@H](CC(C)C)C(=O)NCc2cccc(F)c2)nc(Nc2ccccc2)n1	1090	–
CCn1c(Sc2ccc(C#N)c([N+](=O)[O-])c2)nnc1-c1ccc(Cl)cc1	552	–
CC(=O)Nc1ccc(C(=O)Nc2ccc(-c3cccc(-c4nc5cc(F)ccc5[nH]4)c3)cc2)cn1	231	–
COc1ccc(C2=CCN(c3ccc(Cl)c(Cl)c3)C2=O)cc1OCCN1CCCCC1	784	–
O=C(Nc1cccc(-c2csc(-c3nc4ccccc4[nH]3)c2)c1)c1ccncc1	256	–
CC(=O)Nc1ncc(C(=O)Nc2cccc(-c3cccc(-c4nc5ccccc5[nH]4)c3)c2)s1	814	–
CCN1CCC(N(Cc2ccc(-c3ccc(C(F)(F)F)cc3)cc2)C(=O)Cn2c(CCc3cccc(F)c3F)cc(=O)c3ccccc32)C1 (configuration not stated)	1010	–
CC(Cc1ccc(C(=O)OC(c2ccccc2)c2ccccc2)cc1)NCC(O)c1ccccc1 (configuration not stated)	178	–
CCc1cc2c(=O)c(-c3nc(C)cs3)c(N)oc2c(CN2CCCCC2)c1O	658	–
CCn1cc(CN2C(=O)C(c3ccccc3)(c3ccccc3)N=C2N)cn1	820	–
COc1cc(NC(=O)/C=C/c2cc3ccccc3n2C)ccc1OCCN(C(C)C)C(C)C	387	–
COc1cccc(CN2CCC(CCOC(c3ccccc3)c3ccccc3)CC2)c1O	730	–
Cc1cccc2nc(-c3cccc(-c4ccc(NC(=O)C5CCCO5)cc4)c3)[nH]c12 (configuration not stated)	901	–
COc1ccc(CNC(=O)c2cc3c(=O)n4ccccc4nc3n(CCc3ccccc3)c2=N)cc1	330	–
O=C(CCC1CCCC1)N(Cc1ccc(-c2ccc(CNCCc3ccccn3)cc2)cc1)CC1CCCCN1 (configuration not stated)	1150	–
O=C(NCCCN1CCCCC1)c1cccc(Nc2nccc(Nc3ccc(Oc4ccccc4)cc3)n2)c1	821	–
O=C(NCc1ccccc1)Nc1ccc(-c2cccc(-c3nc4cc(C(F)(F)F)ccc4[nH]3)c2)cc1	662	–
Cc1cc(=NN=Cc2ccccc2Cl)c2ccccc2[nH]1	904	–
O=C(Nc1ccc(OC2CCN(Cc3ccccc3)CC2)c(Cl)c1)c1ccco1	408	–
CC(C)CCN(Cc1cncn1Cc1ccccc1F)C(=O)c1cncc(-c2ccccc2)c1	791	–
